Values quoted from earlier work as cited in patent US5783700A, “Quinolic acid derivatives” (priority 1997, dated 1998).
pIC50, pKd: −log10 of the molar value.

Columns and labels:
[1] = tested on: [^3 H]-MK 801 binding; conditions: cited from earlier work
[2] = tested on: recognition site presumed to be located within the ion channel of the receptor complex; conditions: cited from earlier work
[3] = tested on: NMDA receptor glycine binding; conditions: cited from earlier work
[4] = biological target: glycine binding site on the NMDA receptor; conditions: [^3 H]-labeled ligand; cited from earlier work

Structure (SMILES) | effect at 1 uM on [^3 H]-MK 801 binding ([1]; 1 uM) | pIC50 ([1]; [^3 H]-MK 801, depending on brain region, read-out: IC50 (inhibition concentration)) | effect on binding of phencyclidine-like compounds [2] | inhibition of glycine binding [3] | pKd [4]
O=C(O)c1cc(O)c2ccc(Cl)cc2n1 [7-chlorokynurenic acid] | little effect | 4.40 to 4.52 | decrease binding | competitive inhibitor of glycine binding | –
O=C(O)c1cc(O)c2c(Cl)cc(Cl)cc2n1 [[^3 H]-5,7-dichlorokynurenic acid] | – | – | – | – | 7.54
